Results reported in PMC6470589, “Contribution of Molecular Structure to Self-Assembling and Biological Properties of Bifunctional Lipid-Like 4-(N-Alkylpyridinium)-1,4-Dihydropyridines” (Pharmaceutics, 2019).
“And” between values parts separate entries of the source, which are not always exact repeats. Equal values may be shown once. “Also recorded” adds a separate entry of the source.

Columns and labels:
[1] = Determination of critical aggregation concentration (CAC) by DLS; format: physicochemical; conditions: aqueous media
Protocol: The critical aggregation concentrations (CAC) of 4-(N-alkylpyridinium)-1,4-DHP derivatives were determined in aqueous media using a Zetasizer Nano S90 (Malvern Panalytical Ltd., Malvern, UK) instrument with Malvern Instruments Ltd. Software according to procedure described by Topel et al. and modified by our group. Briefly, as stock solutions of tested compounds were used, samples were prepared for self-assembling experiments. All of the subsequent samples were prepared starting from the concentrated stock solution, which was subjected to a serial two-fold dilution each time with water. The intensity values of scattered light (kcps) as a function of concentration of amphiphiles were analysed. The scattering intensities detected for amphiphile concentrations below CAC have an approximately constant value corresponding to water. The intensity starts to show a linear increase with concentration at the CAC, since the amount of nanoparticles increases in the solution. The intersection of the best-fit lines drawn through the data points is the preliminary CAC value of the compounds.

[2] = design: method as in PMID 9713710; conditions: cited from earlier work
[3] = system: Saccharomyces cerevisiae, CEN.PK2 strain; test: Toxicity screen, serial dilution-spot test; format: cell-based; conditions: yeast; 24 h exposure in DI water, 28 °C; 0.0001 = no colonies at 0.001 mM;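 note: last dilution that did not fully inhibit growth with colonies still present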
Protocol: (§1) An estimation of the toxicity of 4-(N-alkylpyridinium)-1,4-DHP derivatives 3, 6, 7, and 9–11 was performed using six prokaryotic (bacteria) and one eukaryotic (yeast) microorganism species according to the procedure elaborated by Suppi et al.. The microorganisms used in the study and their origin were: Bacillus subtilis subsp. spizizenii (ATCC® 6633™*, Microbiologics®, St Cloud, MN, USA), Escherichia coli (ATCC® 8739, Microbiologics®), Klebsiella pneumoniae (Latvian Microorganisms strain collection, LMKK, strain number 535, Riga, Latvia), Micrococcus luteus (LMKK, No. 25), Pseudomonas aeruginosa (NCTC 12924, Biosciences Ltd., Dublin, Ireland), Proteus mirabilis (LMKK, No 590), and Saccharomyces cerevisiae, CEN.PK2 strain [32].
(§2) Bacteria and yeast cultures were cultivated until their exponential growth phase (optical density max 1); then, 100 µL of cell suspension was taken, washed in deionised (DI) water, and added to serially diluted samples of corresponding 4-(N-alkylpyridinium)-1,4-DHPs in DI water. All 1,4-DHPs were tested in five serially diluted concentrations (10 mM, 1 mM, 0.1 mM, 0.01 mM, and 0.001 mM). Test organisms were exposed to 1,4-DHP derivatives in DI water on 96-well microplates (Corning, Corning, NY, USA) at 28 °C for 24 h without shaking in the dark. Then, a 5 µL sample was taken from each well and spotted on yeast extract, bactopeptone, dextrose broth (YPD) (yeast extract 1%, bactopeptone 2%, glucose 2% and agar 2%) plates to test the growth of yeasts and lysogeny broth (LB) (yeast extract 0.5%, bactopeptone 1%, NaCl 0.5% and agar 2%) to test the growth for bacteria. Plates were left in 30 °C for 24 h, and assessed for microbial growth.
(§3) If there were no colonies after incubation with 1,4-DHPs in the last concentration of (0.001 mM), then their boundary concentration was set to 0.0001 mM or 0.1 µM.

Micrococcus luteus = test: Toxicity screen, serial dilution-spot test; format: cell-based; conditions: gram positive; 24 h exposure in DI water, 28 °C; 0.0001 = no colonies at 0.001 mM;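 note: last dilution that did not fully inhibit growth with colonies still present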
Protocol: as §1, §2, §3

[4] = system: Bacillus subtilis subsp. spizizenii; test: Toxicity screen, serial dilution-spot test; format: cell-based; conditions: gram positive; 24 h exposure in DI water, 28 °C; 0.0001 = no colonies at 0.001 mM;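 note: last dilution that did not fully inhibit growth with colonies still present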
Protocol: as §1, §2, §3

Proteus mirabilis = test: Toxicity screen, serial dilution-spot test; format: cell-based; conditions: gram negative; 24 h exposure in DI water, 28 °C; 0.0001 = no colonies at 0.001 mM;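 note: last dilution that did not fully inhibit growth with colonies still present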
Protocol: as §1, §2, §3

Escherichia coli = test: Toxicity screen, serial dilution-spot test; format: cell-based; conditions: gram negative; 24 h exposure in DI water, 28 °C; 0.0001 = no colonies at 0.001 mM;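 note: last dilution that did not fully inhibit growth with colonies still present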
Protocol: as §1, §2, §3

Pseudomonas aeruginosa = test: Toxicity screen, serial dilution-spot test; format: cell-based; conditions: gram negative; 24 h exposure in DI water, 28 °C; 0.0001 = no colonies at 0.001 mM;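 note: last dilution that did not fully inhibit growth with colonies still present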
Protocol: as §1, §2, §3

Klebsiella pneumoniae = test: Toxicity screen, serial dilution-spot test; format: cell-based; conditions: gram negative; 24 h exposure in DI water, 28 °C; 0.0001 = no colonies at 0.001 mM;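 note: last dilution that did not fully inhibit growth with colonies still present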
Protocol: as §1, §2, §3

human erythrocytes = system: human erythrocytes; design: method as in PMID 9713710; conditions: cited from earlier work
[5] = Self-assembling properties by dynamic light scattering (DLS); format: physicochemical
Protocol: Samples of compounds for dynamic light scattering (DLS) studies were prepared by thin-film hydration method in an aqueous solution at a concentration of 0.5 mg/mL for compounds 1–7, 0.25 mg/mL for compounds 8–10, and 0.1 mg/mL for compound 11. A corresponding amount of compounds was weighted in a round-bottom flask and dissolved in chloroform; then, the organic solvent was removed in vacuo, and the residue was dried in high vacuo for 1 h. An appropriate amount of deionised water was added to each flask for the preparation of stock solutions with the above-mentioned concentrations. Samples were prepared by sonication using a bath-type sonicator (Cole Parmer Ultrasonic Cleaner 8891CPX (Vernon Hills, IL, USA)). Samples were sonicated for 60 min at 50 °C.
The DLS measurements of the nanoparticles in an aqueous solution were carried out on a Zetasizer Nano ZSP (Malvern Panalytical Ltd., Malvern, UK) instrument with Malvern Instruments Ltd. Software 7.12, using the following specifications—medium: water; refractive index: 1.33; viscosity: 0.8872 cP; temperature: 25 °C; dielectric constant: 78.5; nanoparticles: liposomes; refractive index of materials: 1.60; detection angle: 173°; wavelength: 633 nm. Data were analysed using the multimodal number distribution software that was included with the instrument. The measurements were performed in triplicate in order to check their reproducibility.

[6] = system: six prokaryotic (bacteria) and one eukaryotic (yeast) microorganism species; test: Toxicity screen, whole panel of microorganisms; format: cell-based; conditions: concentrations tested 10 to 0.001 mM
Protocol: as §1, §2, §3

CCCCCCCCCCCCCCCC[n+]1cccc(C2C(C(=O)OCC)=C(C)NC(C)=C2C(=O)OCC)c1 [Compound 10]
CAC [1]: 28.2 µM | Release of calcein from DPPC liposomes [2]: remarkable release of calcein from DPPC liposomes | Boundary concentration, S. cerevisiae [3]: 0.0001 mM | Boundary concentration, M. luteus (Micrococcus luteus): 0.001 mM | Boundary concentration, B. subtilis [4]: 0.0001 mM | Boundary concentration, P. mirabilis (Proteus mirabilis): 0.01 mM | Boundary concentration, E. coli (Escherichia coli): 0.01 mM | Boundary concentration, P. aeruginosa (Pseudomonas aeruginosa): 10 mM | Boundary concentration, K. pneumoniae (Klebsiella pneumoniae): 0.01 mM | Hemolysis of human erythrocytes (human erythrocytes): induced the hemolysis of human erythrocytes | PDI ± SD, 1 Set ([5]; freshly prepared samples): 0.10 and 0.10 ± 0.06 | Zeta-Pot ± SD ([5]; freshly prepared samples in water, 0.5 mg/mL (1–7), 0.25 mg/mL (8–10), 0.1 mg/mL (11)): +49.70 ± 7.94 mV | PDI ± SD, 2 Set ([5]; two weeks after the first set, samples stored at r.t.): 0.25 and 0.25 ± 0.05 | Stability of nanoparticles ([5]; two weeks of storage at r.t., DLS): stable after two weeks of storage; also recorded: confirmed the stability of nanoparticles | Effect on survival of microorganisms [6]: toxic at various degrees
